One assay has as its system HL-60. Nature of the assay: growth rate after taurolidine treatment, HL-60. The format is cell-based, human. On the procedure:
FIGS. 7A and 7B depict cell viability and growth rates for HL-60 cell line following taurolidine treatment, in terms of % trypan blue negative cells and % cell number, respectively. Cells were treated with various concentrations of taurolidine for 4 hours in AIM-V+0.01% BCS. After aliquots were collected for LDH assay, the remainder of the culture was rinsed in HBSS and resuspended in RPMI+10% BCS without taurolidine. Counts of trypan blue-negative cells (FIG. 7A), and total cell number (FIG. 7B), were recorded daily thereafter (with the measurement at Day 1 being made immediately after the 4 hour taurolidine treatment). Conditions were: no treatment (open circles); 25 μg/ml taurolidine (closed circles); 50 μg/ml taurolidine (open squares); 100 μg/ml taurolidine (closed squares); and vehicle alone (closed triangles). Doubling times were determined under each condition, and expressed as a percentage of the rate of doubling of untreated cells. These values are located to the right of the growth curves in (FIG. 7B). Cells were subcultured when they reached a concentration of 6×10^5 cells/ml. Data are mean±SEM of three experiments.
In these experiments, integrity of cell membranes following taurolidine treatment was assessed by exclusion of trypan blue and by measuring the release of LDH in MM6, K-562, HL-60, and REH cells. Since BCS contains significant amounts of LDH, these experiments were conducted on cells cultured in AIM-V+0.01% BCS. […] A parallel aliquot of cells was lysed by three cycles of freeze/thaw and the quantity of LDH released was taken to be 100%. […]
HL-60 cells treated with 50 μl taurolidine. In these samples, LDH present in the culture medium was 8.3±2.3% of that released by completely lysed cells, compared with 2.3±0.8% measured in control cultures. […] After 4 hour treatment, cells were rinsed and returned to growth medium and monitored for viability and growth over the following 3 days. […]
^b Growth rate was measured over three days following treatment.

Another assay deals with TNFα. Kind of assay: LPS-induced TNFα expression/secretion by PBMC, ELISA. The format is cell-based, human. The conditions noted are these: taurolidine 100 μg/ml, 4 h. The protocol:
FIG. 3A and FIG. 3B are graphs depicting taurolidine inhibition of LPS-induced alpha […] (TNFα) expression by monocytic cells as determined by assay procedures. FIG. 3A represents MM6 cells; FIG. 3B represents PBMC. The cells were induced with LPS (hatched bars: 100 ng/ml LPS in RPMI+10% BCS; solid bars: 10 ng/ml in AIM-V+0.01% BCS) in the presence of varying concentrations of taurolidine. After four hours, cell supernatants were collected for TNFα ELISA. Data are expressed as percent of TNFα levels measured in cell cultures treated with LPS alone (no taurolidine or vehicle). Experiments were performed with duplicate samples and were repeated at least three times. Values shown in FIG. 3A are from a representative experiment. Values shown in FIG. 3B are mean±SEM of three experiments.
Human peripheral blood mononuclear cells (PBMC) were isolated from heparinized blood by centrifugation using Histopaque as per manufacturer's instructions. The isolated PBMC were suspended in RPMI supplemented with 10% BCS and were used in experiments immediately thereafter. As determined by flow cytometry, PBMC were typically 11±2% monocytes and 80±13% lymphocytes, with the remaining cytometric events consistent in size with platelets and cell aggregates. […]

As for `O=S1(=O)CCN(CN2CCS(=O)(=O)NC2)CN1` [taurolidine, 4,4'-methylenebis(perhydro-1,2,4-thiadiazin 1,1-dioxide)], the “sensitivity of cell growth among cell lines” value with HL-60 (HL-60) was “most inhibited”. In addition, the activity at 50 µg/mL with HL-60 (Homo sapiens, 72 h, HL-60, 50 μg/ml for 4 h, growth over three days, read-out: growth rate (% of control)) amounted to 0%. Further, in the assay on HL-60 (Homo sapiens, 72 h, HL-60, 100 μg/ml for 4 h, growth over three days, read-out: growth rate (% of control)), the activity at 100 µg/mL came to 3%. The “inhibition of LPS-induced TNFα secretion” value in the assay on TNFα is listed as “maximally inhibit TNFα secretion”.

These data come from patent US6303596A, “Use of taurolidine for treatment of leukemias” (priority 2000, dated 2001).
